Results published in patent US20250353864A1, “INDAZOLE CONTAINING MACROCYCLES AND THEIR USE” (BLOSSOMHILL THERAPEUTICS, INC., priority 2022, published 2025).

Legend:
Type in all cases: biochemical
EGFR WT = EGFR WT (Homo sapiens (Human), UniProt P00533); assay: HotSpot radiometric kinase assay (Reaction Biology), EGFR WT; settings: 10 μM ATP
Procedure, shortened: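 Radiometric filter-binding read-out: incorporated 33P was retained on P81 ion-exchange paper after washing away unbound phosphate. Reactions ran 120 min at room temperature with 10 μM final ATP, following ~20 min compound preincubation in Hepes pH 7.5 buffer containing 1% DMSO. IC50 from fitted curves.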

EGFR (D770_N771insNPG) = EGFR (D770_N771insNPG) (Homo sapiens (Human), UniProt P00533, INS770NPG); assay: HotSpot radiometric kinase assay, EGFR (D770_N771insNPG); settings: 10 μM ATP, read-out: EGFR (Δ770_N771insNPG) IC50
Procedure, shortened: (§1)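 Enzyme and substrate pairs were exposed to inhibitor for roughly 20 min before radiolabelled ATP (10 μM final) was introduced; the reaction proceeded 120 min at ambient temperature in pH 7.5 buffer with 1% DMSO, and phosphorylated product was captured on P81 filters for IC50 determination.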

EGFR Δ746-750 mutant = EGFR Δ746-750 mutant (Homo sapiens (Human), UniProt P00533, DEL746-750); assay: HotSpot radiometric kinase assay, EGFR Δ746-750 mutant; settings: 10 μM ATP
Procedure, shortened: as §1

[1] = target: EGFR Δ746-750/C797S mutant (Homo sapiens (Human), UniProt P00533, C797S/DEL746-750); assay: HotSpot radiometric kinase assay, EGFR Δ746-750/C797S mutant; settings: 10 μM ATP
Procedure, shortened: as §1

EGFR L858R mutant = EGFR L858R mutant (Homo sapiens (Human), UniProt P00533, L858R); assay: HotSpot radiometric kinase assay, EGFR L858R mutant; settings: 10 μM ATP
Procedure, shortened: as §1

EGFR L858R/T790M mutant = EGFR L858R/T790M mutant (Homo sapiens (Human), UniProt P00533, L858R/T790M); assay: HotSpot radiometric kinase assay, EGFR L858R/T790M mutant; settings: 10 μM ATP
Procedure, shortened: as §1

[2] = target: EGFR L858R/T790M/C797S mutant (Homo sapiens (Human), UniProt P00533, C797S/L858R/T790M); assay: HotSpot radiometric kinase assay, EGFR L858R/T790M/C797S mutant; settings: 10 μM ATP
Procedure, shortened: as §1

ALK = ALK (Homo sapiens (Human), UniProt Q9UM73); assay: HotSpot radiometric kinase assay, inhibition of ALK kinase activity; settings: 10 μM ATP
Protocol: Briefly, specific kinase/substrate pairs along with required cofactors were prepared in reaction buffer; 20 mM Hepes pH 7.5, 10 mM […], 1 mM EGTA, 0.02% Brij35, 0.02 mg/ml BSA, 0.1 mM Na3VO4, 2 mM DTT, 1% DMSO. Compounds were delivered into the reaction, followed […] later by addition of a mixture of ATP (Sigma, St. Louis MO) and ^33P ATP (Perkin Elmer, Waltham MA) to a final concentration of 10 μM. Reactions were carried out at room temperature for 120 min, followed by spotting of the reactions onto P81 ion exchange filter paper (Whatman Inc., Piscataway, NJ). Unbound phosphate was removed by extensive washing of filters in 0.75% phosphoric acid. […] IC50 values and curve fits were obtained using Prism (GraphPad Software).

CLK1 = CLK1 (Homo sapiens (Human), UniProt P49759); assay: Inhibition of CLK1 kinase activity evaluated at Nanosyn (ADP-Glo); settings: ADP-Glo luminescence
Procedure, shortened: (§2)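 Enzyme + substrate in HEPES pH 7.5/MgCl2/DTT buffer; compound dispensed acoustically, 1% DMSO. ATP start, assay-specific incubation time. ADP-Glo reagent 40 min, detection reagent 10 min, luminescence. %inh vs DMSO (0%) and no-enzyme (100%) controls.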

CLK2 = CLK2 (Homo sapiens (Human), UniProt P49760); assay: Inhibition of CLK2 kinase activity evaluated at Nanosyn (ADP-Glo); settings: ADP-Glo luminescence
Procedure, shortened: as §2

CLK3 = CLK3 (Homo sapiens (Human), UniProt P49761); assay: Inhibition of CLK3 kinase activity evaluated at Nanosyn (ADP-Glo); settings: ADP-Glo luminescence
Procedure, shortened: as §2

CLK4 = CLK4 (Homo sapiens (Human), UniProt Q9HAZ1); assay: Inhibition of CLK4 kinase activity evaluated at Nanosyn (ADP-Glo); settings: ADP-Glo luminescence
Procedure, shortened: as §2

Sequence of CLK1 (P49759 whole entry): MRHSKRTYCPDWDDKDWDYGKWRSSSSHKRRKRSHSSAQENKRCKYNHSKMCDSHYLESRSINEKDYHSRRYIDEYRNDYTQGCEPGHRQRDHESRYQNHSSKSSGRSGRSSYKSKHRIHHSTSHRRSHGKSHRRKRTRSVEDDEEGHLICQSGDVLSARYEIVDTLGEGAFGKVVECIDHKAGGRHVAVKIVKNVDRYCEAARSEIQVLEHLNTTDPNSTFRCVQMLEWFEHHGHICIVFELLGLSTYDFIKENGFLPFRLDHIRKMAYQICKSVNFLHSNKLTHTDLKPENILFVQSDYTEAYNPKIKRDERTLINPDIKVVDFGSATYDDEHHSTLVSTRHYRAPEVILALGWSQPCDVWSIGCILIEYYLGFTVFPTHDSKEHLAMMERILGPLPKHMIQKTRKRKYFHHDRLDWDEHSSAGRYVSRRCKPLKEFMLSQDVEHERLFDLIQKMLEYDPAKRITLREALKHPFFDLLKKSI
Sequence of ALK (Q9UM73 19-1620): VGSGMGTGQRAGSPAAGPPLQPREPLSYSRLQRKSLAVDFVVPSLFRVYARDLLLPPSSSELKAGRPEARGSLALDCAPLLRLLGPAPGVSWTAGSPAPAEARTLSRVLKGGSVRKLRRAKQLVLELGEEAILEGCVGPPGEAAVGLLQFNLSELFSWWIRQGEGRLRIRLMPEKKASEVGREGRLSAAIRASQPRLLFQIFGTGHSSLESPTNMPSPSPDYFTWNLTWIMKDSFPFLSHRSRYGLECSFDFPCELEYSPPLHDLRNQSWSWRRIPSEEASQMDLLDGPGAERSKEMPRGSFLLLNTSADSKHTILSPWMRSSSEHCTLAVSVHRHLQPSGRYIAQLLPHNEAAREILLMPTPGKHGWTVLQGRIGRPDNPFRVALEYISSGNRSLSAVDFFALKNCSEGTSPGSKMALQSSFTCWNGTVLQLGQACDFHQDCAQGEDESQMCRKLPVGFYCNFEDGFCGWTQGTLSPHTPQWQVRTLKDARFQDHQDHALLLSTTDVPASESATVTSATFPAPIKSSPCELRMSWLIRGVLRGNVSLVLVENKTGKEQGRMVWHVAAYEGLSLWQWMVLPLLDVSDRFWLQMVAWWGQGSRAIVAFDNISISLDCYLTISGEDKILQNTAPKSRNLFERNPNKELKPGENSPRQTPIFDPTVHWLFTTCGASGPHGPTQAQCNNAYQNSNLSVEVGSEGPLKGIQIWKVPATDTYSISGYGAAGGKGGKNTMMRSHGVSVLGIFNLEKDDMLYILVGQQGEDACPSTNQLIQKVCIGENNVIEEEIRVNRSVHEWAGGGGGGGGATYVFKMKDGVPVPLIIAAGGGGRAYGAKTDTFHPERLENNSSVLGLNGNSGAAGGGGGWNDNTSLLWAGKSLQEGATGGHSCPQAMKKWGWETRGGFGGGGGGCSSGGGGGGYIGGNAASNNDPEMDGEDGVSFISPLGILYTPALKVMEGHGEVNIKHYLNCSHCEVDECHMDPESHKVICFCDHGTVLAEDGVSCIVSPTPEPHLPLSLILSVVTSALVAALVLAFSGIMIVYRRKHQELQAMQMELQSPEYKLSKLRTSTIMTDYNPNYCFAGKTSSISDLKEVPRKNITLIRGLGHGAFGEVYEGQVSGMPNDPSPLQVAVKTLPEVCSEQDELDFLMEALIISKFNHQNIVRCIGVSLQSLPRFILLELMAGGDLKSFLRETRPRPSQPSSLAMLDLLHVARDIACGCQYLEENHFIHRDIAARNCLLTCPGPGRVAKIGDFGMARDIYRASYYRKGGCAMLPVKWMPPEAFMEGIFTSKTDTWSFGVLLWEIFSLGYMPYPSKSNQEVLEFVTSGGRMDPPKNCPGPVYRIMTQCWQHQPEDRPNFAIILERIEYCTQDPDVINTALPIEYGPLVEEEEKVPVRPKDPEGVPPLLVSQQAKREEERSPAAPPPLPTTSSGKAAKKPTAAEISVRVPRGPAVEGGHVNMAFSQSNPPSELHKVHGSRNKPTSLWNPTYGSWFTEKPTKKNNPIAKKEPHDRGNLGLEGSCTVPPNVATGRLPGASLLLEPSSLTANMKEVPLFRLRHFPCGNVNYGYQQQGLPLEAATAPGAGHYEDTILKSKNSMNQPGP
Sequence of EGFR L858R/T790M mutant (P00533 25-1210 T790M/L858R): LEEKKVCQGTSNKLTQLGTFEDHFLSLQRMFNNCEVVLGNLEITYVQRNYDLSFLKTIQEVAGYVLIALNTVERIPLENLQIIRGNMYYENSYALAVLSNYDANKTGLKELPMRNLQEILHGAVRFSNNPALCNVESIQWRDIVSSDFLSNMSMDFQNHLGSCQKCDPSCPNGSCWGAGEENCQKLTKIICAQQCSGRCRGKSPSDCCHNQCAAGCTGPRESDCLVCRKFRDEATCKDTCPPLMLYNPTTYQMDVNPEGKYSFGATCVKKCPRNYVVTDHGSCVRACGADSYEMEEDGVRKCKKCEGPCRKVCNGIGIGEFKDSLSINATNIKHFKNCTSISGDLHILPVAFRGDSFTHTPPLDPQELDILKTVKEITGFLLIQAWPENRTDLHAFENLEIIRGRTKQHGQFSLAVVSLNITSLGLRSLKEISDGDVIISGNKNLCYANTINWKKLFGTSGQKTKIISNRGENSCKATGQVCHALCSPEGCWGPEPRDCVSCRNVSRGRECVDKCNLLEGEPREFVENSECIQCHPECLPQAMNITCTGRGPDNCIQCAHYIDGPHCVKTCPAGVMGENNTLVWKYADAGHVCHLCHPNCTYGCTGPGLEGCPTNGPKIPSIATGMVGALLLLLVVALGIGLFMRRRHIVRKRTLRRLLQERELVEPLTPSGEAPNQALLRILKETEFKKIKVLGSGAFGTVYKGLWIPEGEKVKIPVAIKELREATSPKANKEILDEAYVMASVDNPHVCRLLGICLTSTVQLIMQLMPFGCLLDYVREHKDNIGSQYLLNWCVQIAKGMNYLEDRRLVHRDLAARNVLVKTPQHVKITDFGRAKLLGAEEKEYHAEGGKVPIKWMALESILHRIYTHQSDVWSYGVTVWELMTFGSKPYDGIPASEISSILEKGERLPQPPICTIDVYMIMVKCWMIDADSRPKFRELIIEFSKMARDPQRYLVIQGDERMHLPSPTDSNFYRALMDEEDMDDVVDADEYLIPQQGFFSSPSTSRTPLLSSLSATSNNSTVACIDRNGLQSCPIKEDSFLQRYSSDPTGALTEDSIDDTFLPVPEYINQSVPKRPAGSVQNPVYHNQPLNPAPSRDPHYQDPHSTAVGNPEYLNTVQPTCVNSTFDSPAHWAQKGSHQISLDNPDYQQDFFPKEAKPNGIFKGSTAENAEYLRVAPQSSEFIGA
Sequence of EGFR WT (P00533 25-1210): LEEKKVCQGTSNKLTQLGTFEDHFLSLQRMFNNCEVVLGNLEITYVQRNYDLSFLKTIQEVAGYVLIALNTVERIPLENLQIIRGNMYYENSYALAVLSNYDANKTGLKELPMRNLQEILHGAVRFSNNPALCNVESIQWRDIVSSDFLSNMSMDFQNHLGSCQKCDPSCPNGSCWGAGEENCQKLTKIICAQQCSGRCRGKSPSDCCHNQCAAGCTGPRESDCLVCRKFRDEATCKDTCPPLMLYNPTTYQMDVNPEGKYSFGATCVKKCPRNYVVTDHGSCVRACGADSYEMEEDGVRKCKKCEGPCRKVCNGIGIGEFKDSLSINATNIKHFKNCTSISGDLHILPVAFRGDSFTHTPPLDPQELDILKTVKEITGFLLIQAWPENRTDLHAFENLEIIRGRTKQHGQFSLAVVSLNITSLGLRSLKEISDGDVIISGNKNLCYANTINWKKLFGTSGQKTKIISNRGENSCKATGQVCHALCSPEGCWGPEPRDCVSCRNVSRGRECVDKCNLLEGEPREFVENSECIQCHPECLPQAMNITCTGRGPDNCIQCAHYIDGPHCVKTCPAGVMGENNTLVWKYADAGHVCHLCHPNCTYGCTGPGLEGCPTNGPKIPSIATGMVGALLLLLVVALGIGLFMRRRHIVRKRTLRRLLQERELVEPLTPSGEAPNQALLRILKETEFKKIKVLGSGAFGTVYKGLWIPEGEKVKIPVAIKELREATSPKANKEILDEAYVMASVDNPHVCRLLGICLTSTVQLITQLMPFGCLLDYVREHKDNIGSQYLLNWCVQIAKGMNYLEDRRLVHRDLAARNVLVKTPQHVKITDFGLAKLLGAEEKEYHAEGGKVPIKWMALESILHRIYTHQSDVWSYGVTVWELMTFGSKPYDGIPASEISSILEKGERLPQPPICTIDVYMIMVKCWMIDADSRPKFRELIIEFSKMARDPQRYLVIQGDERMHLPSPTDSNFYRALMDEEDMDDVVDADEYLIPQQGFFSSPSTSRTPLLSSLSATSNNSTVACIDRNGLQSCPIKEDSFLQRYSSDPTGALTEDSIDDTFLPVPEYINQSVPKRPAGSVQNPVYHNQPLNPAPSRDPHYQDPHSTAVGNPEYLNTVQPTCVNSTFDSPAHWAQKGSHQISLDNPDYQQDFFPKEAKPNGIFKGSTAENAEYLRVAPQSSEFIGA
Sequence of CLK2 (P49760 whole entry): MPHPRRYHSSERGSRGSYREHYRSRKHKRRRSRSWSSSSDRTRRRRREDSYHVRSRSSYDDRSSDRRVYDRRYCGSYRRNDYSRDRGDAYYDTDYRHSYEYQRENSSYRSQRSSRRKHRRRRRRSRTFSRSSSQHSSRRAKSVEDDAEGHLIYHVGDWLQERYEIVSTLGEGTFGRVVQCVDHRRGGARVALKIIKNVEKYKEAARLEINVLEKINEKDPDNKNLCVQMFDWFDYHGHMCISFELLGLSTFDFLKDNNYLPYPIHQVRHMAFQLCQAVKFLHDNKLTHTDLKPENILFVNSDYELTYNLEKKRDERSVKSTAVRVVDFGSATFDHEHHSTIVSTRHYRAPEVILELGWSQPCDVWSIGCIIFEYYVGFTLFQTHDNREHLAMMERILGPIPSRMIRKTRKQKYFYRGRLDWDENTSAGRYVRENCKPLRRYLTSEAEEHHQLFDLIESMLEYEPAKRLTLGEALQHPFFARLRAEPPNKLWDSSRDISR

| IC50 (EGFR WT) [nM] | IC50 (EGFR (D770_N771insNPG)) [nM] | IC50 (EGFR Δ746-750 mutant) [nM] | IC50 [1] [nM] | IC50 (EGFR L858R mutant) [nM] | IC50 (EGFR L858R/T790M mutant) [nM] | IC50 [2] [nM] | IC50 (ALK) [nM] | IC50 (CLK1) [nM] | IC50 (CLK2) [nM] | IC50 (CLK3) [nM] | IC50 (CLK4) [nM] | Structure (SMILES) |
| --- | --- | --- | --- | --- | --- | --- | --- | --- | --- | --- | --- | --- |
| 12.5 | 84.4 | 2.23 | 1.68 | 1.8 | 1.29 | 2.5 | 1.05 | 0.87 | 0.68 | 56.2 | 2.6 | CC(C)Oc1nn(CCO)c2c1/C=C/c1n[nH]c3cc(F)c(cc13)-c1cnn(C)c1O[C@@H](C)CN(C)C2 [Example 181, 2-{(10S,17E)-19-fluoro-8,10,12-trimethyl-16-[(propan-2-yl)oxy]-2,8,10,11,12,13-hexahydro-14H-3,5-ethenotripyrazolo[3,4-f:3′,4′-j:4″,3″- n][1,4]oxazacyclopentadecin-14-yl}ethan-1-ol] |
| – | – | – | – | – | – | – | 1.08 | 0.52 | 0.24 | 242 | 1.96 | CCN1Cc2c(c(OC(C)C)nn2C[C@H](C)O)/C=C/c2n[nH]c3ccc(cc23)-c2cnn(C)c2O[C@@H](C)C1 [Ex. 280, (2S)-1-{(10S,17E)-12-ethyl-8,10-dimethyl-16-[(propan-2-yl)oxy]-2,8,10,11,12,13-hexahydro-14H-3,5-ethenotripyrazolo[3,4-f:3′,4′-j:4″,3″-n][1,4]oxazacyclopentadecin-14-yl}propan-2-ol] |
| – | – | – | – | – | – | – | 20.8 | 1.35 | 418 | 1.92 | 0.847 | Cc1noc2c1/C=C/c1n[nH]c3ccc(cc13)-c1cnn(C)c1OCCOC2 [Example 321, (17E)-8,16-dimethyl-2,10,11,13-tetrahydro-8H-3,5-ethenodipyrazolo[3′,4′:10,11;4″,3″:14,15] [1,4]dioxacyclopentadecino[7,6-d][1,2]oxazole] |

More lines, now with the values behind:

| Structure (SMILES) | IC50 (EGFR WT) [nM] | IC50 (EGFR (D770_N771insNPG)) [nM] | IC50 (EGFR Δ746-750 mutant) [nM] | IC50 [1] [nM] | IC50 (EGFR L858R mutant) [nM] | IC50 (EGFR L858R/T790M mutant) [nM] | IC50 [2] [nM] | IC50 (ALK) [nM] | IC50 (CLK1) [nM] | IC50 (CLK2) [nM] | IC50 (CLK3) [nM] | IC50 (CLK4) [nM] |
| --- | --- | --- | --- | --- | --- | --- | --- | --- | --- | --- | --- | --- |
| CCOc1nn([C@@H](C)CO)c2c1/C=C/c1n[nH]c3cc(F)c(cc13)-c1cnn(C)c1O[C@@H](C)CN(C)C2 [Example 214, (2S)-2-[(10S,17E)-16-ethoxy-19-fluoro-8,10,12-trimethyl-2,8,10,11,12,13-hexahydro-14H-3,5-ethenotripyrazolo[3,4-f:3′,4′-j:4″,3″- n][1,4]oxazacyclopentadecin-14-yl]propan-1-ol] | 0.77 | 8.31 | 0.22 | 0.48 | 0.35 | 0.2 | 0.17 | 2.47 | 2.37 | 2.51 | 592 | 7.25 |
| CCN1Cc2c(c(OC(C)C)nn2CC(N)=O)/C=C/c2n[nH]c3ccc(cc23)-c2cnn(C)c2O[C@@H](C)C1 [Example 232, 2-{(10S,17E)-12-ethyl-8,10-dimethyl-16-[(propan-2-yl)oxy]-2,8,10,11,12,13-hexahydro-14H-3,5-ethenotripyrazolo[3,4-f:3′,4′-j:4″,3″-n][1,4]oxazacyclopentadecin-14-yl}acetamide] | 0.41 | 1.39 | 0.08 | 0.55 | 0.22 | 0.13 | 0.11 | 0.9 | 0.77 | 0.45 | 42 | 1.49 |
| CCOc1nn([C@@H](C)CO)c2c1/C=C/c1n[nH]c3cc(F)c(cc13)-c1cnn(C)c1O[C@@H](C)CN(CC)C2 [Example 215] | 1.71 | 3.75 | 0.69 | 1.93 | 1.7 | 1.49 | 0.89 | 2.58 | 3.33 | 2.1 | 964 | 9.08 |
| Cc1c2c(nn1C)CN(C)C[C@H](C)Oc1c(cnn1C)-c1ccc3[nH]nc(c3c1)/C=C/2 [Example 58, (10S,17E)-8,10,12,15,16-pentamethyl-2,10,11,12,13,15-hexahydro-8H-3,5-ethenotripyrazolo[3,4-f:3′,4′-j:4″,3″- n][1,4]oxazacyclopentadecine] | 49.2 | 222 | 11.1 | 7.29 | 9.29 | – | 1.57 | 4.79 | 0.2 | 0.38 | 160 | 0.53 |
